For assay [1], the system named is male Sprague-Dawley rats. Nature of the assay: in vivo screen APCC: blood cholesterol in rats after one night on a high fat, high cholesterol diet (PCC). The settings on record: blood cholesterol vs vehicle (CMC/Tween), dosed at 4 PM, PCC diet containing 0.5% cholic acid overnight, sacrificed at 8 AM, dose not given. The source says:
In one in vivo screen designated APCC, male Sprague-Dawley rats (200 to 225 g) were randomly divided into treatment groups and dosed at 4 PM with either vehicle (CMC/Tween) or suspensions of compounds in vehicle. The normal chow diet was then replaced with a high fat, high cholesterol diet (designated PCC) containing 0.5% cholic acid. The rats consumed this diet ad libitum during the night and were sacrificed at 8 AM to obtain blood samples for cholesterol analysis using standard procedures. Statistical differences between mean cholesterol values for the same vehicle were determined using analysis of variance followed by Fisher's least significant test.

Assay [2] has as its target acyl-CoA: cholesterol acyltransferase (ACAT). The assay can be described thus: in vitro ACAT inhibition test (IAI): formation of radiolabeled cholesterol oleate from radiolabeled oleic acid in intestinal microsomes. The assay is classed as biochemical. The settings on record: tissue preparation containing rabbit intestinal microsomes, concentration required to inhibit the activity of the enzyme by 50%, read-out: IAI IC₅₀. On the procedure: The ability of representative compounds of the present invention to inhibit ACAT was measured using an in vitro test more fully described in F. J. Field and R. G. Salone, Biochemica et Biophysica 712:557-570 (1982). The test assesses the ability of a test compound to inhibit the acylation of cholesterol by oleic acid by measuring the amount of radiolabeled cholesterol oleate formed from radiolabeled oleic acid in a tissue preparation containing rabbit intestinal microsomes.
The data appear in Table 1 where they are expressed in IC₅₀ values; i.e., the concentration of test compound required to inhibit the activity of the enzyme by 50%.

SMILES strings stand for the structures. Where a name gives a salt, the structure may show the parent alone. Read-outs that look alike come from different tables or passages of the source.

For the compound `CC(C)c1cccc(C(C)C)c1OC(=O)NS(=O)(=O)Oc1c(C(C)C)cccc1C(C)C` [Example 1, 2,6-Bis(1-methylethyl)phenyl[[2,6-bis(1-methylethyl)phenoxy]sulfonyl]carbamate], in assay [1], the “% Change (mg/dl)” value is given as -70%. The same measure, in the same setting: under `Cc1cc(C(C)(C)C)c(OC(=O)NS(=O)(=O)Oc2ccccc2)c(C(C)(C)C)c1` [Example 2, 2,6-Bis(1,1-dimethylethyl)-4-methylphenyl(phenoxysulfonyl)carbamate] stands -65%; under `CCCCCCOS(=O)(=O)NC(=O)Oc1c(C(C)(C)C)cc(C)cc1C(C)(C)C` [Example 3, 2,6-Bis(1,1-dimethylethyl)-4-methylphenyl[(hexyloxy)sulfonyl]carbamate], -56%. Consider `CCCCCCCCCCCCOS(=O)(=O)NC(=O)Oc1c(C(C)(C)C)cc(C)cc1C(C)(C)C` [Example 4], for which the IC50 in assay [2] was 52 µM. The “% Change (mg/dl)” value in assay [1] is given as -65%. The matching figures for `CCCCCCCCCCCCOC(=O)NS(=O)(=O)Oc1c(C(C)C)cccc1C(C)C` [Example 5, Dodecyl [[2,6-bis(1-methylethyl)phenoxy]sulfonyl]carbamate]: 13 µM and -62%. In the case of `COC(=O)NS(=O)(=O)Oc1c(C(C)C)cccc1C(C)C` [Example 6, Methyl[[2,6-bis(1-methylethyl)phenoxy]sulfonyl]carbamate], the IC50 in assay [2] is above 100 µM.

In the case of `CCCCCCOS(=O)(=O)NC(=O)Oc1c(C(C)C)cccc1C(C)C` [Example 7, 2,6-Bis(1-methylethyl)phenyl[(hexyloxy)sulfonyl]carbamate], the “% Change (mg/dl)” value in assay [1] was -52%. `CCCCCCCCCCCCOS(=O)(=O)NC(=O)Oc1c(C(C)C)cccc1C(C)C` [Example 8]: the IC50 in assay [2] is 13 µM. In addition, the “% Change (mg/dl)” value in assay [1] is recorded as -68%. For `CC(C)c1cccc(C(C)C)c1OS(=O)(=O)NC(=O)Oc1c(C(C)(C)C)cccc1C(C)(C)C` [Example 9, 2,6-Bis(1,1-dimethylethyl)phenyl[[2,6-bis(1-methylethyl)phenoxy]sulfonyl]carbamate], the “% Change (mg/dl)” value in assay [1] is given as -70%.

With `CCCCCCCCCCCCOS(=O)(=O)NC(=O)Oc1c(-c2ccccc2)cccc1-c1ccccc1` [Example 10, [1,1':3',1''-Terphenyl]-2'-yl[(dodecyloxy)sulfonyl]carbamate], the IC50 in assay [2] was above 10 µM. Besides, the “% Change (mg/dl)” value in assay [1] is on record as -69%. `CC(C)c1cccc(C(C)C)c1OC(=O)NS(=O)(=O)Oc1ccccc1` [Example 17, 2,6-Bis(1-methylethyl)phenyl(phenoxysulfonyl)carbamate]: in assay [1], the “% Change (mg/dl)” value is recorded as -26%.

In the case of `Cc1cccc(C)c1OS(=O)(=O)NC(=O)Oc1c(C(C)C)cccc1C(C)C` [Example 18, 2,6-Bis(1-methylethyl)phenyl[(2,6-dimethylphenoxy)sulfonyl]carbamate], in assay [1], the “% Change (mg/dl)” value is -58%. Same read-out and setting: the figure for `COc1cccc(OC)c1OS(=O)(=O)NC(=O)Oc1c(C(C)C)cccc1C(C)C` [Example 19, 2,6-Bis(1-methylethyl)phenyl[(2,6-dimethoxyphenoxy)sulfonyl]carbamate] is -70%. As to `CC(C)c1cccc(C(C)C)c1OC(=O)NS(=O)(=O)Oc1ccc(F)cc1F` [Example 20], in assay [2], the IC50 is 50 µM. Also, in assay [1], the “% Change (mg/dl)” value was -11%.

`COc1cc(OC)c(OS(=O)(=O)NC(=O)Oc2c(C(C)C)cccc2C(C)C)c(OC)c1` [Example 21, 2,6-Bis(1-methylethyl)phenyl[(2,4,6-trimethoxyphenoxy)sulfonyl]carbamate]: the “% Change (mg/dl)” value in assay [1] is -61%.

Turning to `CC(C)c1cccc(C(C)C)c1OC(=O)NS(=O)(=O)Oc1c(F)cccc1F` [Example 22], in assay [2], the IC50 was found to be 38 µM. Further, in assay [1], the “% Change (mg/dl)” value was “+9%”. With `CCCCCCCCCCCCCCCCOS(=O)(=O)NC(=O)Oc1c(C(C)C)cccc1C(C)C` [Example 23, 2,6-Bis(1-methylethyl)phenyl[(hexadecyloxy)sulfonyl]carbamate], in assay [1], the “% Change (mg/dl)” value is recorded as -59%. For the compound `CC(C)c1cccc(C(C)C)c1OC(=O)NS(=O)(=O)Oc1c(C(C)(C)C)cccc1C(C)(C)C` [Example 24, 2,6-Bis(1-methylethyl)phenyl[[2,6-bis(1,1-dimethylethyl)phenoxy]sulfonyl]carbamate], the “% Change (mg/dl)” value in assay [1] is listed as -55%. As for `COc1cccc(OC)c1OC(=O)NS(=O)(=O)Oc1c(OC)cccc1OC` [Example 25, 2,6-dimethoxyphenyl[(2,6-dimethoxyphenoxy)sulfonyl]carbamate], the “% Change (mg/dl)” value in assay [1] was -10%. The same measure, in the same setting: the figure for `CC(C)(C)c1cccc(C(C)(C)C)c1OC(=O)NS(=O)(=O)Oc1c(C(C)(C)C)cccc1C(C)(C)C` [Example 26, 2,6-Bis(1,1-dimethylethyl)phenyl[(2,6-bis(1,1-dimethylethyl)phenoxy)sulfonyl]carbamate] is -18%. As to `CC(C)c1cccc(C(C)C)c1OC(=O)NS(=O)(=O)Oc1c(C(C)C)cccc1C(C)C` [Example 27, 2,6-bis(1-methylethyl)phenyl[[2,6-bis(1-methylethyl)phenoxylsulfonyl]carbamate, 2-hydroxy-N,N,N-trimethylethanaminium salt], the IC50 in assay [2] came to 3.3 µM. Besides, in assay [1], the “% Change (mg/dl)” value was -72%.

Consider `CC(C)c1cccc(C(C)C)c1OC(=O)NS(=O)(=O)Oc1c(C(C)C)cccc1C(C)C` [Example 28, 2,6-bis(1-methylethyl)phenyl[[2,6-bis(1-methylethyl)phenoxy]sulfonyl]carbamate, monosodium salt], for which the IC50 in assay [2] (monosodium salt) came out at 5.2 µM. Besides, the “% Change (mg/dl)” value in assay [1] (monosodium salt) is reported as -65%. Regarding `CCCCCCCCCCCCOS(=O)(=O)NC(=O)Sc1c(C(C)C)cccc1C(C)C` [Example 30, S-[2,6-bis(1-methylethyl)phenyl][(dodecyloxy)sulfonyl]carbamothioate], in assay [1], the “% Change (mg/dl)” value is on record as -9%.

On to `CC(C)c1cccc(C(C)C)c1OC(=O)N(C)S(=O)(=O)Oc1c(C(C)C)cccc1C(C)C` [Example 31, 2,6-bis(1-methylethyl)phenyl[[2,6-bis(1-methylethyl)phenoxylsulfonyl]methyl carbamate], for which the IC50 in assay [2] is 63 µM. In addition, the “% Change (mg/dl)” value in assay [1] is listed as -64%.

The record behind these values is patent EP0555351B1, “OXYSULFONYL CARBAMATES” (WARNER-LAMBERT COMPANY, priority 1990, dated 1992).
